Structures are written as SMILES.

Assay [1] deals with Protein kinase C theta type (Homo sapiens) (UniProt Q04759). The experiment in a line: Inhibition of recombinant human His-tagged full length PRKCQ expressed in baculovirus expression system at 500 nM using Ser/Thr 07 as substrate incubated for 1 hr in presence of ATP at its Km concentration by Z'-LYTE assay relative to control.
Assay [2] concerns the target Serine/threonine-protein kinase B-raf (Homo sapiens) (UniProt P15056). The experiment in a line: Inhibition of recombinant human GST-tagged full length BRAF expressed in baculovirus expression system at 500 nM using Ser/Thr 03 peptide as substrate incubated for 1 hr in presence of 100 uM ATP by Z'-LYTE assay relative to control.
Assay [3] addresses Tyrosine-protein kinase Fer (Homo sapiens) (UniProt P16591). The experiment in a line: Inhibition of recombinant human GST-tagged FER (541 to 822 residues) expressed in baculovirus expression system at 500 nM using Tyr 05 peptide as substrate incubated for 1 hr in presence of ATP at its Km concentration by Z'-LYTE assay relative to control.
Assay [4] concerns the target Platelet-derived growth factor receptor beta (Homo sapiens) (UniProt P09619). Put plainly: Inhibition of recombinant human His-tagged PDGFRbeta cytoplasmic domain expressed in baculovirus expression system at 500 nM using Tyr 04 as substrate incubated for 1 hr in presence of ATP at its Km concentration by Z'-LYTE assay relative to control.
Assay [5] concerns the target T1, Serine/threonine-protein kinase Nek1 (Homo sapiens) (UniProt Q96PY6).
T1 sequence (whole entry): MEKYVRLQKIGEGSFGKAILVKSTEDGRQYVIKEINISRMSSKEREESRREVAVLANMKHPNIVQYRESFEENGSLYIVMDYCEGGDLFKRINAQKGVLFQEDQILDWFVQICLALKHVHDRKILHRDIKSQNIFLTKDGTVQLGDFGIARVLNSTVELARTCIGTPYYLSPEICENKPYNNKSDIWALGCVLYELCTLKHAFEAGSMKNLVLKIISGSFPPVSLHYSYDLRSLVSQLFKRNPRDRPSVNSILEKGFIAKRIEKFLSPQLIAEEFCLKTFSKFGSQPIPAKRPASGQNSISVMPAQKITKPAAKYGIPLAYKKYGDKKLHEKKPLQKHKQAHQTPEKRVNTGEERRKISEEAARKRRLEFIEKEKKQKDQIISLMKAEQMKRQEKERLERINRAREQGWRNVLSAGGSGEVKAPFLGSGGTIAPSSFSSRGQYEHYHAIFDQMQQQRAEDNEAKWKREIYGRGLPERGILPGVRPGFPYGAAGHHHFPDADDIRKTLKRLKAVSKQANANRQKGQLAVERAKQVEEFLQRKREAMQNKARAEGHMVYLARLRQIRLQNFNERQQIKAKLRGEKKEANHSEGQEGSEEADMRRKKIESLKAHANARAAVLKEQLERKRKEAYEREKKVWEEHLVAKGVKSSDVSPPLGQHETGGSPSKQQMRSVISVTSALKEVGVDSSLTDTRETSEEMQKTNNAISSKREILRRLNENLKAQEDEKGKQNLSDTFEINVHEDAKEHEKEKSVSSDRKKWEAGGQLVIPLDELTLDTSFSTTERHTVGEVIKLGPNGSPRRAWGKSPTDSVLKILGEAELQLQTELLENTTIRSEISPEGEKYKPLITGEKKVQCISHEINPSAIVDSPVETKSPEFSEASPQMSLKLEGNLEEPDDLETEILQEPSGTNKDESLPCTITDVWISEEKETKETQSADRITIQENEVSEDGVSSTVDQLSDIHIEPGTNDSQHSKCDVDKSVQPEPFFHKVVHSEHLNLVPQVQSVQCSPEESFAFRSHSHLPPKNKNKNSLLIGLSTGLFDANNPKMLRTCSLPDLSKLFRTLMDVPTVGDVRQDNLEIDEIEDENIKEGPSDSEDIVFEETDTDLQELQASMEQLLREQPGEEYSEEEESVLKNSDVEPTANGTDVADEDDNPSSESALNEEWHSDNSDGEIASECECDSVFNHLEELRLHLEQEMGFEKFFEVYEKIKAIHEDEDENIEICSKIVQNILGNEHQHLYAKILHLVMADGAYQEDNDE
The experiment in a line: Inhibition of recombinant human GST-tagged NEK1 (1 to 505 residues) expressed in baculovirus expression system at 500 nM using Ser/Thr 07 as substrate incubated for 1 hr in presence of ATP at its Km concentration by Z'-LYTE assay relative to control.

Assay [6] has as its target Receptor tyrosine-protein kinase erbB-2 (Homo sapiens) (UniProt P04626). The experiment in a line: Inhibition of recombinant human His-tagged ERBB2 (676 to 1255 residues) expressed in baculovirus expression system at 500 nM using Tyr 06 peptide as substrate incubated for 1 hr in presence of ATP at its Km concentration by Z'-LYTE assay relative to control.
In assay [7] the target is Mitogen-activated protein kinase 8 (Homo sapiens) (UniProt P45983). Put plainly: Inhibition of recombinant human His tagged human MAPK8 expressed in baculovirus expression system at 500 nM using Ser/Thr 04 as substrate incubated for 1 hr in presence of 100 uM ATP by Z'-LYTE assay relative to control.
The target in assay [8] is Glycogen synthase kinase-3 beta (Homo sapiens) (UniProt P49841). Put plainly: Inhibition of recombinant full-length human His-tagged GSK3beta expressed in baculovirus expression system at 500 nM using Ser/Thr 09 as substrate incubated for 1 hr in presence of ATP at its Km concentration by Z'-LYTE assay relative to control.
In assay [9] the target is Fibroblast growth factor receptor 1 (Homo sapiens) (UniProt P11362). Put plainly: Inhibition of recombinant human His-tagged FGFR1 (308 to 731 residues) expressed in baculovirus expression system at 500 nM using Tyr 04 peptide as substrate incubated for 1 hr in presence of ATP at its Km concentration by Z'-LYTE assay relative to control.
Assay [10] has as its target Tyrosine-protein kinase Blk (Homo sapiens) (UniProt P51451). The experiment in a line: Inhibition of recombinant human His-tagged full length BLK expressed in baculovirus expression system at 500 nM using Tyr 01 peptide as substrate incubated for 1 hr in presence of ATP at its Km concentration by Z'-LYTE assay relative to control.
The target of assay [11] is Protein kinase C beta type (Homo sapiens) (UniProt P05771). The experiment in a line: Inhibition of human full length GST tagged PRKCB1 expressed in insect cells at 500 nM using Ser/Thr 07 as substrate incubated for 1 hr in presence of ATP at its Km concentration by Z'-LYTE assay relative to control.
For assay [12], the target named is Ephrin type-A receptor 2 (Homo sapiens) (UniProt P29317). Put plainly: Inhibition of recombinant human GST-tagged EPHA2 cytoplasmic domain expressed in baculovirus expression system at 500 nM using Tyr 01 peptide as substrate incubated for 1 hr in presence of ATP at its Km concentration by Z'-LYTE assay relative to control.

Protein kinase C beta type (Homo sapiens), sequence (P05771 2-671 limits assumed): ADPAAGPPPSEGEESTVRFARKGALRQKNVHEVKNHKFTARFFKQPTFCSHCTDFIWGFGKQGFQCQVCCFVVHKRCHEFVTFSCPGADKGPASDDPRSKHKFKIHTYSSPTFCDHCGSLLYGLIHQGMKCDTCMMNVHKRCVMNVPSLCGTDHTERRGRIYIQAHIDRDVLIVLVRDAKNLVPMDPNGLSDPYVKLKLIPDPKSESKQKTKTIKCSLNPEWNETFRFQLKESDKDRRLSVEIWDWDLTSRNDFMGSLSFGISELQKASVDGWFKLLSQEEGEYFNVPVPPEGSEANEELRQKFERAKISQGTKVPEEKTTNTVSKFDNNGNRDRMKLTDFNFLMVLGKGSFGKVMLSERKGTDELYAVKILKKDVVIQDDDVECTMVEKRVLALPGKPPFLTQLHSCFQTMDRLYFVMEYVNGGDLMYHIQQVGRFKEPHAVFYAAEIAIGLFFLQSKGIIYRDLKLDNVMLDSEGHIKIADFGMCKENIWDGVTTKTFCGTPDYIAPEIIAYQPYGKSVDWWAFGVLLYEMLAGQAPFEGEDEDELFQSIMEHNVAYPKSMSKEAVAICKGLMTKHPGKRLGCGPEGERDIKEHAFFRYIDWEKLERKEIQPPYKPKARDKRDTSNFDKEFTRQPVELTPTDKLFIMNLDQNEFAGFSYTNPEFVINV
Receptor tyrosine-protein kinase erbB-2 (Homo sapiens), sequence (P04626 whole entry, the tested form may be a part): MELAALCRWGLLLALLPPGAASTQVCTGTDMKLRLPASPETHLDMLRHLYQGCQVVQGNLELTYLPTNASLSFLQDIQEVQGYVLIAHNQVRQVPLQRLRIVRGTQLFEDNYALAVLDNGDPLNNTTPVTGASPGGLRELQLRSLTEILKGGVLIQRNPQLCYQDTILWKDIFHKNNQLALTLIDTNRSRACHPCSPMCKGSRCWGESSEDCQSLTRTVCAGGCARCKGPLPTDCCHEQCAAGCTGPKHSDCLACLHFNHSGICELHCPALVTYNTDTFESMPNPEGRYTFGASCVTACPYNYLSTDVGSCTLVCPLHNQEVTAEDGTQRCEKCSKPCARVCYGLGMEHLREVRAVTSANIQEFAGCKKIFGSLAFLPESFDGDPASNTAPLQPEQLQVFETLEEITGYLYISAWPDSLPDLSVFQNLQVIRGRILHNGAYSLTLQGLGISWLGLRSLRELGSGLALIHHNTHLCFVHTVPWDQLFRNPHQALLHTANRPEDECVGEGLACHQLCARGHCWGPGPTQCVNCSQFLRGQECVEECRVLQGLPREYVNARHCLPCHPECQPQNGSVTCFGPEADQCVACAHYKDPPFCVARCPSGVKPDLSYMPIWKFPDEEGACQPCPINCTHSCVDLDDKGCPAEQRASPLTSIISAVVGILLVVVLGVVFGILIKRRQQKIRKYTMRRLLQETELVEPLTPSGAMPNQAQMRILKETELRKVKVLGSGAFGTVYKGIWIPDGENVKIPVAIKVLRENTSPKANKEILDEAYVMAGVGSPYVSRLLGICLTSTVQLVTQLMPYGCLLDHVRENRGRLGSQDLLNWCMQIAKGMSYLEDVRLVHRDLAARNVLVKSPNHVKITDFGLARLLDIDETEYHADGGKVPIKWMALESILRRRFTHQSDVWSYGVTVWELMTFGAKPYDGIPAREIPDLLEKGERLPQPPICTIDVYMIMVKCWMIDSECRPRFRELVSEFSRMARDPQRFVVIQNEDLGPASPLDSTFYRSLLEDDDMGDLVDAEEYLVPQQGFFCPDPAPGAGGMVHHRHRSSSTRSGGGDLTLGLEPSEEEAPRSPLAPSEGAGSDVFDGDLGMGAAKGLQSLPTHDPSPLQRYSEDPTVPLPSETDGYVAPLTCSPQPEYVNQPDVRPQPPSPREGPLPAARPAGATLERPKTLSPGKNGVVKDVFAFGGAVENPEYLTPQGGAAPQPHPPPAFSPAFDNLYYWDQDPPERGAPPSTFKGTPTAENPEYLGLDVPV
Glycogen synthase kinase-3 beta (Homo sapiens), sequence (P49841 whole entry, looked up, the tested form may be a part): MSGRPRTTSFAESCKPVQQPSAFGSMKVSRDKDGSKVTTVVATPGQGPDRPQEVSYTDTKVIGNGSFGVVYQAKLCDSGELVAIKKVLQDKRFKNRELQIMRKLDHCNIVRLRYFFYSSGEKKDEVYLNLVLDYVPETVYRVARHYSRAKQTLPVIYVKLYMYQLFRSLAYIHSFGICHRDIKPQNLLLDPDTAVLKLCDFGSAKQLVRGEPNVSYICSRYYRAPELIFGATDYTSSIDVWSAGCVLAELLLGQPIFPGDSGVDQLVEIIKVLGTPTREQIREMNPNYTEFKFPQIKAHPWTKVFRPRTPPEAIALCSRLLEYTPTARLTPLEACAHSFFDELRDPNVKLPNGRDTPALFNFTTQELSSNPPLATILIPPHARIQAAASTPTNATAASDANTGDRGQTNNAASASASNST
Tyrosine-protein kinase Fer (Homo sapiens), sequence (P16591 whole entry, looked up, the tested form may be a part): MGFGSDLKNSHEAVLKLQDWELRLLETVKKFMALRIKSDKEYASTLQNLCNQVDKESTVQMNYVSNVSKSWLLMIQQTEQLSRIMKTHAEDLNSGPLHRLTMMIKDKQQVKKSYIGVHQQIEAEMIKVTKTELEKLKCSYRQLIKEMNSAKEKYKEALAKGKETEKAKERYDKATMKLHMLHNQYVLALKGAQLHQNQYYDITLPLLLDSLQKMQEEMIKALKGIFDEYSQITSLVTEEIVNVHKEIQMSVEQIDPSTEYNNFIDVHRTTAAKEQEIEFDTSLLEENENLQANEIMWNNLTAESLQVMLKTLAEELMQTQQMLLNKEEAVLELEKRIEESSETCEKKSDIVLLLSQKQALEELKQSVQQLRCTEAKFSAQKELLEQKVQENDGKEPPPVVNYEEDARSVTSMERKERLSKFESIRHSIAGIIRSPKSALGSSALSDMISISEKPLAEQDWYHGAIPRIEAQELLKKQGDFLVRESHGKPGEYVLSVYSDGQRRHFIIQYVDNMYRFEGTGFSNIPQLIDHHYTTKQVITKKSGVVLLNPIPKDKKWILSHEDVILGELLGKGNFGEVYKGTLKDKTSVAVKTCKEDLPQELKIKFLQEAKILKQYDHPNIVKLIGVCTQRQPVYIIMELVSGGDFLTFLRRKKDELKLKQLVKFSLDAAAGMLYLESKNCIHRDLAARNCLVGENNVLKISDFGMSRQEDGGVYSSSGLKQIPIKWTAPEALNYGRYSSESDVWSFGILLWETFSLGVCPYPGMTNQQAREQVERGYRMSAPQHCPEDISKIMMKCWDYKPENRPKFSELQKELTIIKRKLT
Fibroblast growth factor receptor 1 (Homo sapiens), sequence (P11362 22-822 limits assumed): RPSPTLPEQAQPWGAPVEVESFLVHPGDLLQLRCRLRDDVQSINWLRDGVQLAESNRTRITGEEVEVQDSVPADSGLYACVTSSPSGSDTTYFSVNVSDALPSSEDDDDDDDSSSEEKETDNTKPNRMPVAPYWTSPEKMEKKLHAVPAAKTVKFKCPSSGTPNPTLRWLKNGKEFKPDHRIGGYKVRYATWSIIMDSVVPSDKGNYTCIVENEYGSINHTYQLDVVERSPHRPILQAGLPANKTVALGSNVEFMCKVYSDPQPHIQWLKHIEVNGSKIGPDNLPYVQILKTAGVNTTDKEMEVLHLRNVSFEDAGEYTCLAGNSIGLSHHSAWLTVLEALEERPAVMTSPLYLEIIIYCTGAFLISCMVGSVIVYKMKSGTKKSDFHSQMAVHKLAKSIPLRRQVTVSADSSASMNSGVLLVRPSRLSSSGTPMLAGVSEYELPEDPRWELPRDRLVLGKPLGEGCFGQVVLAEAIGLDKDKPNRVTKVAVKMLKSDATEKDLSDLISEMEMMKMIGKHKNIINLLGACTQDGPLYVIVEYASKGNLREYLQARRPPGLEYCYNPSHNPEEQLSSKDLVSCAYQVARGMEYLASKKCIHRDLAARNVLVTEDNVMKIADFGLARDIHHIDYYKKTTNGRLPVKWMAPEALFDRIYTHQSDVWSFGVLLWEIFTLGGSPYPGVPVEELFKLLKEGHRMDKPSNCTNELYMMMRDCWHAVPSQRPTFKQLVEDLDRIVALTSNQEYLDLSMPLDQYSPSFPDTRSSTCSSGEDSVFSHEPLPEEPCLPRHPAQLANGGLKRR
Protein kinase C theta type (Homo sapiens), sequence (Q04759 whole entry, looked up): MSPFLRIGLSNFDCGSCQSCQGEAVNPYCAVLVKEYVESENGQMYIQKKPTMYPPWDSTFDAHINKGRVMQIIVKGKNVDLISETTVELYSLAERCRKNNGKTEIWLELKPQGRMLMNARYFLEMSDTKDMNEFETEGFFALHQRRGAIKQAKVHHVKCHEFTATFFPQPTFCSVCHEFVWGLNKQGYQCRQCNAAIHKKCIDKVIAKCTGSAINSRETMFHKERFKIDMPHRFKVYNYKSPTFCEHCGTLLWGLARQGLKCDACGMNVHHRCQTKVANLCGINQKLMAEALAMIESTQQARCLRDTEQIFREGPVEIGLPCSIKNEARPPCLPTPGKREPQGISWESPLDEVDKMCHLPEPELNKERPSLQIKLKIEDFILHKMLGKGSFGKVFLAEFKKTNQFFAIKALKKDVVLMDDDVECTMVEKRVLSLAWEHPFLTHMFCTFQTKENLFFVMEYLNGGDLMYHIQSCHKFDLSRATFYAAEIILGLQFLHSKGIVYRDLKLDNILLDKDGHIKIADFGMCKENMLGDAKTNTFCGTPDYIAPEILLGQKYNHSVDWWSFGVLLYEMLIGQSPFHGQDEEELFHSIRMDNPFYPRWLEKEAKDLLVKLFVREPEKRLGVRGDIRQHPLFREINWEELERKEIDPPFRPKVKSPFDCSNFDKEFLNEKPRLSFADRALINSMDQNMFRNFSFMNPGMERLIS

`OCC[C@@H](Nc1ncnc2[nH]c(-c3ccccc3)cc12)c1ccccc1`: the inhibition in [1] was 5%; in [2], -3%; in assay [3] it was 10%; in assay [4], 11%; in assay [5] it was 13%; in assay [6] it was 36%. The inhibition in assay [7] worked out at 27%; in assay [8] it was 8%; in assay [9], 0%; in assay [10], 17%; in assay [11], 6%; in assay [12], 23%.
Consider `OC[C@@H](Nc1ncnc2[nH]c(-c3ccccc3)cc12)c1ccccc1`, for which the inhibition in [1] was 12%; in assay [2], -2%; in assay [3], 6%; in assay [4], -1%; in assay [5], 0%; in [6], 53%. Besides, the inhibition in [7] is 0%; in [8], 8%; in [9], 16%; in assay [10], 33%; in [11], 1%; in [12], 16%.
As for `CCOc1ccccc1-c1cc2c(N[C@H](CO)c3ccccc3)ncnc2[nH]1`, the inhibition in assay [1] was 2%; in assay [2] it was 7%; in assay [3] it was 12%; in assay [4], 8%; in assay [5], 8%; in [6], 35%. The inhibition in [7] was found to be 17%; in [8], 13%; in [9], 3%; in [10] it was 14%; in [11] it was 15%; in assay [12], 21%.
Consider `CN(C)CCNCc1ccc(-c2cc3c(N[C@H](CO)c4ccccc4)ncnc3[nH]2)cc1F`, for which the inhibition was 1% in [1]; -4% in [2]; 7% in assay [3]; 10% in [4]; 15% in assay [5]; 58% in assay [6]. The inhibition in assay [7] came to 19%; in [8], 8%; in assay [9] it was 9%; in assay [10], 22%; in assay [11], 17%; in assay [12], 54%.
Consider `C#Cc1cccc(Nc2ncnc3cc(OCCOC)c(OCCOC)cc23)c1` [ERLOTINIB], for which the inhibition in assay [1] is -4%; in assay [2] it was 3%; in [3] it was -1%; in [4], -5%; in [5], -8%; in assay [6], 52%. Also, the inhibition in assay [7] was 32%; in [8], -8%; in assay [9], -4%; in [10], 38%; in [11], -2%; in [12], 11%.
For the compound `COc1ccccc1-c1cc2c(N[C@H](CO)c3ccccc3)ncnc2[nH]1`, the inhibition in assay [1] worked out at 5%; in assay [2], 4%; in assay [3], 7%; in assay [4] it was 0%; in [5] it was 1%; in [6] it was 53%. The inhibition in assay [7] amounted to 7%; in [8] it was 6%; in [9] it was 6%; in assay [10], 29%; in assay [11], 8%; in assay [12], 7%.

In general, inhibition refers to the drop in the measured response relative to a control, in per cent.

Source of the values: ChEMBL document CHEMBL4715760, “Balancing potency, metabolic stability and permeability in pyrrolopyrimidine-based EGFR inhibitors” (Eur J Med Chem, 2016).
